Assay results taken from US11964973B2 (priority 2019, dated 2024).
Read-outs that look alike come from different tables or passages of the source.

What was measured:
full length human DGKζ = full length human DGKζ (Homo sapiens (Human), UniProt Q13574); assay: In vitro DGK inhibition assay, Method B (DGKζ LIPGLO, extruded liposomes); format: biochemical
Human DGKα(9-727) = Human DGKα(9-727) (Homo sapiens (Human), UniProt P23743); assay: biochemical; conditions: liposome (LIPGLO) assay; Table A; read-out: DGKα LIPGLO IC50
Sequence of Human DGKα(9-727) (P23743 whole entry, looked up): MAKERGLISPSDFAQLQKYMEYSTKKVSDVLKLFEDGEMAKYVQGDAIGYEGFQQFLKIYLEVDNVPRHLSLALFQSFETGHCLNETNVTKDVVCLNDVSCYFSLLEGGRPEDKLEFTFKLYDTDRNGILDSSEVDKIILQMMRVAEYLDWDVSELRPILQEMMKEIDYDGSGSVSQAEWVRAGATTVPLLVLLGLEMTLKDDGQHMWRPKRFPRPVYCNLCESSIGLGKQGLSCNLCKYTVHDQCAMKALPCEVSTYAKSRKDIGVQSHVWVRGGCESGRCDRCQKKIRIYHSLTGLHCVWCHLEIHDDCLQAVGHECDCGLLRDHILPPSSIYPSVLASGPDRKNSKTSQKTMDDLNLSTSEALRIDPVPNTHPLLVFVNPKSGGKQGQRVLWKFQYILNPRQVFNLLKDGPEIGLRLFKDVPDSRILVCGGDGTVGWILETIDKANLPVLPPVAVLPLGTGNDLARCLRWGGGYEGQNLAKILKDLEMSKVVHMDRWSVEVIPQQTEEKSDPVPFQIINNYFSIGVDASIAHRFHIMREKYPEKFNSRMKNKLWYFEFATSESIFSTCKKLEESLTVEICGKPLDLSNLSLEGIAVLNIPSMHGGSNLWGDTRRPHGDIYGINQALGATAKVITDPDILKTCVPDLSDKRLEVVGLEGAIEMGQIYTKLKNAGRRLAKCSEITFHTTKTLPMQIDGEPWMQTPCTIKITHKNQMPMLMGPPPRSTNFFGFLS

[1] = tested on: human venous whole blood, CD8 positive population (pERK); assay: DGK human whole blood pERK assay; format: cell-based; conditions: for EC50: top concentration 20 μM
Procedure, shortened: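 Heparinized whole blood from healthy donors preincubated with compound 1 hour at 37° C. Stimulation used anti-CD3 at 1 μg/mL final plus cross-linking goat anti-mouse IgG for 15 minutes. Flow cytometry scored percentage pERK-positive cells among CD8-positive cells.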

human DGKζ = human DGKζ (Homo sapiens (Human), UniProt Q13574); assay: biochemical; format: biochemical; conditions: liposome (LIPGLO) assay; read-out: DGKζ LIPGLO IC50
Sequence of human DGKζ (Q13574 whole entry, looked up): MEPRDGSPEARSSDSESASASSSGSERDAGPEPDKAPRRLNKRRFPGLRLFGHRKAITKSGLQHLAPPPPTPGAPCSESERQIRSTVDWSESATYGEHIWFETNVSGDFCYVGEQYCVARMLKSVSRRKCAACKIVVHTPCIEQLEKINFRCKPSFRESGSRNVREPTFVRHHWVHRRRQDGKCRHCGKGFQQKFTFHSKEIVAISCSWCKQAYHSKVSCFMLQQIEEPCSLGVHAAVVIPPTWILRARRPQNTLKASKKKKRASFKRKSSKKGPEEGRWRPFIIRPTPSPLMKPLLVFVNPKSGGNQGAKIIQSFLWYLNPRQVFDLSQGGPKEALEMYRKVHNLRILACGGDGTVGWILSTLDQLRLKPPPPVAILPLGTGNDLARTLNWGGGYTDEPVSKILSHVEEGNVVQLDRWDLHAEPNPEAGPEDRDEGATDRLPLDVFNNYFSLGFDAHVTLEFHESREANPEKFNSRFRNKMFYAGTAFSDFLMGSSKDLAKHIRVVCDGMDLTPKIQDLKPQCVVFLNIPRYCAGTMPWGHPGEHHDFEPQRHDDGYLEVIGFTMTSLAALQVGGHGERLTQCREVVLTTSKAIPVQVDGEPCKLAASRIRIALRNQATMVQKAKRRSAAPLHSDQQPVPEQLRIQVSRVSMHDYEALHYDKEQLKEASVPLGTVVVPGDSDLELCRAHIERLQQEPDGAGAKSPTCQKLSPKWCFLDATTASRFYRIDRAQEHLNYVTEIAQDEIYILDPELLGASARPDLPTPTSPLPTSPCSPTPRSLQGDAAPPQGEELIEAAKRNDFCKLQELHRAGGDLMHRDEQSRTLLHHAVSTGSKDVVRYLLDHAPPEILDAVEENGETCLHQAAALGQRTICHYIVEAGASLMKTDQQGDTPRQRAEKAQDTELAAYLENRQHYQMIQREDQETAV

DGKα = DGKα (Homo sapiens (Human), UniProt P23743); assay: biochemical; format: biochemical; conditions: liposome (LIPGLO) assay; read-out: DGKα LIPGLO IC50
Sequence of DGKα (P23743 whole entry, looked up): as the sequence (P23743 whole entry, looked up) above

[2] = tested on: Human venous whole blood (IFN-γ); assay: Human whole blood IFN-γ assay; format: cell-based; conditions: Homo sapiens, 24 h, human whole blood, anti-CD3 plus anti-CD28, 24 hours; read-out: INFg Whole Blood Normalized Agonist EC50
Procedure: Assay 10: Human Whole Blood IFN-γ Assay
Human venous whole blood (22.5 μL per well), obtained from healthy donors, was pre-treated with compounds for one hour at 37° C. in a humidified 95% air/5% CO2 incubator. The blood was stimulated with 2.5 μL anti-human CD3 and anti-CD28 mAb at a final concentration of 1 μg/mL each for 24 hours at 37° C. IFN-γ in the supernatants was measured using AlphLISA kit (Cat #AL217).

naïve human CD8 T cells = assay: CellTiter-Glo CD8 T cell proliferation assay; format: cell-based; conditions: Homo sapiens, read-out: CD8 GLO Normalized EC50
Procedure, shortened: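 Thawed naïve human CD8 T cells (20 k/well) were stimulated with plate-bound anti-CD3 (0.1 μg/mL coating) and 0.5 μg/ml soluble anti-CD28, with compounds added right after plating. After 72 h at 37° C, proliferation was read by CellTiter-Glo luminescence. The signal from stimulated cells was taken as background.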

[3] = tested on: OT-1 CD8+ T cells with SIINFEKL-loaded MC38 tumor cells; assay: Murine cytotoxic T lymphocyte assay (IFN-γ); format: cell-based, mouse; conditions: Mus musculus, MC-38; murine cytotoxic T lymphocyte, IFN-γ; read-out: msCTL INFg IC50
From the text: Assay 6: Murine Cytotoxic T Lymphocyte Assay
An antigen-specific cytolytic T-cell (CTL) assay was developed to evaluate functionally the ability of DGKα and DGKζ inhibitors to enhance effector T cell mediated tumor cell killing activity. CD8+ T-cells isolated from the OT-1 transgenic mouse recognize antigen presenting cells, MC38, that present the ovalbumin derived peptide […]. Recognition of the cognate antigen initiates the cytolytic activity of the OT-1 antigen-specific CD8+ T cells.
Functional CTL cells were generated as follows: OT-1 splenocytes from 8-12 week old mice were isolated and expanded in the presence of the […] peptide at 1 μg/mL and mIL2 at 10 U/mL. After three days, fresh media with […] was added. On day 5 of the expansion, the CD8+ T cells were isolated and ready for use. Activated CTL cells may be stored frozen for 6 months. Separately, one million MC38 tumor cells were pulsed with 1 μg/mL of […]-OVA peptide for 3 hours at 37° C. The cells were washed (3×) with fresh media to remove excess peptide. Finally, CTL cells that were pretreated with DGK inhibitors for 1 hour in a 96-well U bottom plate were combined with the antigen loaded MC38 tumor cells at a 1:10 ratio. The cells were then spun at 700 rpm for 5 min and placed in an incubator overnight at 37° C. After 24 hours, the supernatant was collected for analysis of IFN-γ cytokine levels by AlphaLisa purchased from Perkin Elmer.

[4] = liposome (LIPGLO) assay, read-out: DGKζ LIPGLO IC50
[5] = read-out: DGK HWB (human whole blood pERK), human whole blood, CD8 positive population, anti-CD3 stimulation
[6] = human whole blood, CD8 positive population, anti-CD3 stimulation, read-out: DGK HWB (human whole blood pERK)
[7] = Homo sapiens, CD8 positive, human whole blood, CD8 positive population, anti-CD3 stimulation, read-out: DGK HWB (human whole blood pERK)
[8] = Homo sapiens, CD8 positive, read-out: DGK HWB (human whole blood pERK), human whole blood, CD8 positive population, anti-CD3 stimulation

Sequence of full length human DGKζ (Q13574 whole entry, looked up): as the sequence (Q13574 whole entry, looked up) above

Row | Structure (SMILES) | IC50 (full length human DGKζ; [4]) [µM] | IC50 (Human DGKα(9-727)) [µM] | EC50 [1, 6] [µM] | further results
1 | Cn1c(=O)cc(N2CC[C@@H](Oc3cccc(C(F)(F)F)c3)[C@H](OCCN3CCOCC3)C2)c2nc(C#N)ccc21 [Example 392, 5-methyl-8-((3R,4R)-3-(2-morpholinoethoxy)-4-(3-(trifluoromethyl)phenoxy)piperidin-1-yl)-6-oxo-5,6-dihydro-1,5-naphthyridine-2-carbonitrile] | 24 | 42 |  | EC50 [1, 5]: 13 µM
2 | CC(C)O[C@@H]1CN(c2cc(=O)n(C)c3ccc(C#N)nc23)CC[C@H]1Oc1cccc(C(F)(F)F)c1 (relative stereo) [Example 395, trans-8-(3-Isopropoxy-4-(3-(trifluoromethyl)phenoxy)piperidin-1-yl)-5-methyl-6-oxo-5,6-dihydro-1,5-naphthyridine-2-carbonitrile] | 0.069 | 0.32 | 0.91 | 
3 | CCO[C@@H]1CN(c2nc(=O)n(C)c3ccc(C#N)nc23)CC[C@H]1Oc1ccc(OC(C)C)cn1 (relative stereo) [Example 400, trans-4-(3-Ethoxy-4-((5-isopropoxypyridin-2-yl)oxy)piperidin-1-yl)-1-methyl-2-oxo-1,2-dihydropyrido[3,2-d]pyrimidine-6-carbonitrile] | 0.7 | 6.1 | 9.2 | 
4 | CN(C)CCO[C@@H]1CN(c2cc(=O)n(C)c3ccc(C#N)nc23)CC[C@H]1Oc1cccc(C(F)(F)F)c1 [Example 385, 8-((3R,4R)-3-(2-(dimethylamino)ethoxy)-4-(3-(trifluoromethyl)phenoxy)piperidin-1-yl)-5-methyl-6-oxo-5,6-dihydro-1,5-naphthyridine-2-carbonitrile] | 130 | 100 |  | 
5 | CCO[C@H]1CN(c2cc(=O)n(C)c3ccc(C#N)nc23)CC[C@@H]1OCc1cccc(C(F)(F)F)c1 [Example 381, 8-((3S,4S)-3-ethoxy-4-((3-(trifluoromethyl)benzyl)oxy)piperidin-1-yl)-5-methyl-6-oxo-5,6-dihydro-1,5-naphthyridine-2-carbonitrile] | 7.4 | 0.31 |  | EC50 [1, 7]: 0.24 µM
6 | CCO[C@H]1CN(c2nc(=O)n(C)c3ccc(C#N)nc23)CC[C@@H]1Oc1ccc(C(F)(F)F)cc1 [Example 404, 4-((3S,4S)-3-ethoxy-4-(4-(trifluoromethyl)phenoxy)piperidin-1-yl)-1-methyl-2-oxo-1,2-dihydropyrido[3,2-d]pyrimidine-6-carbonitrile] | 1.2 | 5.6 |  | EC50 [1, 8]: 1.3 µM
7 | C[C@@H]1CN(c2cc(=O)n(C)c3ccc(C#N)nc23)[C@@H](C)CC1N(C)C(=O)c1ccc(F)cc1 (single isomer, unassigned) [Example 283B] |  | 42 |  | IC50 (full length human DGKζ): 42 µM
8 | CCO[C@H]1CN(c2cc(=O)n(C)c3ccc(C#N)nc23)CC[C@@H]1Oc1ccc(OC(C)C)nn1 [Example 376, 8-((3S,4S)-3-ethoxy-4-((6-isopropoxypyridazin-3-yl)oxy)piperidin-1-yl)-5-methyl-6-oxo-5,6-dihydro-1,5-naphthyridine-2-carbonitrile] | 14 |  |  | EC50 [1, 8]: 20 µM
9 | CCO[C@H]1CN(c2nc(=O)n(C)c3ccc(C#N)nc23)CC[C@@H]1Oc1ccc(C(F)(F)F)cc1 [Example 405, 4-((3S,4S)-3-ethoxy-4-(4-(trifluoromethyl)phenoxy)piperidin-1-yl)-1-methyl-2-oxo-1,2-dihydropyrido[3,2-d]pyrimidine-6-carbonitrile] | 14 |  |  | 
10 | CN(C)CCO[C@@H]1CN(c2cc(=O)n(C)c3ccc(C#N)nc23)CC[C@H]1Oc1cccc(C(F)(F)F)c1 [Example 386, 8-((3R,4R)-3-(2-(dimethylamino)ethoxy)-4-(3-(trifluoromethyl)phenoxy)piperidin-1-yl)-5-methyl-6-oxo-5,6-dihydro-1,5-naphthyridine-2-carbonitrile] | 42 | 130 |  | EC50 [1, 7]: 20 µM
11 | CCO[C@H]1CN(c2cc(=O)n(C)c3ccc(C#N)nc23)CC[C@@H]1Oc1ccc(OC(C)C)cn1 (relative stereo) [Example 398, trans-8-(4-((5-Isopropoxypyridin-2-yl)oxy)-3-ethoxypiperidin-1-yl)-5-methyl-6-oxo-5,6-dihydro-1,5-naphthyridine-2-carbonitrile] | 1.2 |  | 2.8 | 
12 | CCO[C@H]1CN(c2cc(=O)n(C)c3ccc(C#N)nc23)CC[C@@H]1Oc1ncc(OC(C)C)cn1 [Example 379, 8-((3S,4S)-3-ethoxy-4-((5-isopropoxypyrimidin-2-yl)oxy)piperidin-1-yl)-5-methyl-6-oxo-5,6-dihydro-1,5-naphthyridine-2-carbonitrile] | 3.1 | 0.58 | 7 | 
13 | CCO[C@H]1CN(c2cc(=O)n(C)c3ccc(C#N)nc23)CC[C@@H]1Oc1cnc(OC(C)C)cn1 [Example 378, 8-((3S,4S)-3-ethoxy-4-((5-isopropoxypyrazin-2-yl)oxy)piperidin-1-yl)-5-methyl-6-oxo-5,6-dihydro-1,5-naphthyridine-2-carbonitrile] | 5.2 | 7.7 | 10 | 
14 | Cn1c(=O)cc(N2CC[C@@H](Oc3cccc(C(F)(F)F)c3)[C@H](OCC3CC3)C2)c2nc(C#N)ccc21 [Example 387, 8-((3R,4R)-3-(cyclopropylmethoxy)-4-(3-(trifluoromethyl)phenoxy)piperidin-1-yl)-5-methyl-6-oxo-5,6-dihydro-1,5-naphthyridine-2-carbonitrile] | 0.097 | 2.1 | 0.65 | 
15 | C[C@@H]1CN(c2cc(=O)n(C)c3ccc(C#N)nc23)[C@@H](C)CC1N(C)C(=O)c1ccc(F)cc1 (single isomer, unassigned) [Example 283A] | 14 | 26 |  | 
16 | CCO[C@H]1CN(c2cc(=O)n(C)c3ccc(C#N)nc23)CC[C@@H]1Oc1ncc(OC(C)C)cn1 [Example 380, 8-((3S,4S)-3-ethoxy-4-((5-isopropoxypyrimidin-2-yl)oxy)piperidin-1-yl)-5-methyl-6-oxo-5,6-dihydro-1,5-naphthyridine-2-carbonitrile] | 14 | 1.3 | 20 | 
17 | Cn1c(=O)c([N+](=O)[O-])c(N2CCC(Oc3ccc(OC(F)(F)F)cc3)CC2)c2nc(C#N)ccc21 [Example 51, 5-methyl-7-nitro-6-oxo-8-(4-(4-(trifluoromethoxy)phenoxy)piperidin-1-yl)-5,6-dihydro-1,5-naphthyridine-2-carbonitrile] |  |  |  | IC50 (human DGKζ): 3 µM; IC50 (DGKα): 0.23 µM; EC50 [2]: 1.7 µM; IC50 ([1]; human whole blood, CD8 positive population, read-out: DGK HWB pERK IC50): 2.5 µM; EC50 (naïve human CD8 T cells): 0.14 µM; IC50 [3]: 0.18 µM
18 | COCCO[C@@H]1CN(c2cc(=O)n(C)c3ccc(C#N)nc23)CC[C@H]1Oc1cccc(C(F)(F)F)c1 [Example 390, 8-((3R,4R)-3-(2-methoxyethoxy)-4-(3-(trifluoromethyl)phenoxy)piperidin-1-yl)-5-methyl-6-oxo-5,6-dihydro-1,5-naphthyridine-2-carbonitrile] | 1.9 |  |  | EC50 [1, 5]: 20 µM
19 | Cn1c(=O)cc(N2CC[C@@H](Oc3cccc(C(F)(F)F)c3)[C@H](OCC(F)(F)F)C2)c2nc(C#N)ccc21 [Example 394, 5-methyl-6-oxo-8-((3R,4R)-3-(2,2,2-trifluoroethoxy)-4-(3-(trifluoromethyl)phenoxy)piperidin-1-yl)-5,6-dihydro-1,5-naphthyridine-2-carbonitrile] | 51 |  |  | EC50 [1, 5]: 6.2 µM
